Data set [1] deals with male mice (ICR). Description: Muscle relaxation: endurance time on rotarod rotating at accelerated speed. In kind it is in vivo. As to conditions: Mus musculus, ip; intraperitoneal, at time of maximum effect; 50% of activity vs vehicle only; read-out: MR test ED50, I = Acc. Rotarod. How it is done:
(§1) For testing, male mice (ICR) were purchased from ORIENT BIO INC. (Korea), divided into several groups with 6 mice in each group, and were adapted for 4-5 days. The mice having the weight ranging from 19 g to 26 g were employed for the test. The pharmacological effect of the test compounds on muscle relaxation was evaluated by Rotarod test, grip strength test, and muscular force (wire hang) test. All mice were adapted to the test environment at one hour before starting the tests. The pharmacological effects of all the test compounds were evaluated by administration through peritoneal cavity of the mice (10 ul/g, bw).
At 24 hours before testing, the mice to be tested were preliminarily trained for 5 minutes on a rod rotating at the rate of 6 revolutions per a minute. The pharmacological effect on muscle relaxation of the test compounds were evaluated by observing the mice on a rod for 5 minutes, where the rod was accelerated from 4 to 40 revolutions per a minute during the test time. The endurance time that each mouse endures on the acceleratedly rotated rod without falling off from the rod was recorded. As test time for evaluation, a maximum of 5 minutes was applied. […] This experimentation was conducted according to the method described in the reference, ‘Monville et al. (2006) Comparison of incremental and accelerating protocol of the rotarod test for the assessment of motor deficits in the 6-OHDA model. J. Neurosci. Meth. 158: 219-223’.
(§2) The results of muscle relaxation activity of the phenyl carbamate compounds measured in above Experimental Examples 11.2 to 11.5 are shown in following Table 5.

Data set [2] deals with male mice (ICR). Description: Muscle relaxation: residence time on rotarod rotating at fixed speed (15 r.p.m.). As to conditions: Mus musculus, ip; intraperitoneal, at time of maximum effect; 50% of activity vs vehicle only; read-out: MR test ED50, II = Fixed 15 r.p.m. Rotarod. It is filed as in vivo.
The test system of a further data set is male SD rats. The data set can be described thus: MES (Maximal Electroshock Seizure) test in rats. The following applies: for ED50: Rattus norvegicus, po, read-out: Duration of MES test ED50.
Data set [3] deals with male mice (ICR). The data set can be described thus: Muscle relaxation: wire hang. It is filed as in vivo. The following applies: Mus musculus; intraperitoneal, at time of maximum effect; 50% of activity vs vehicle only; read-out: MR test ED50, IV = Wire hang. How it is done:
as §1
This experimentation was conducted using a metal wire of 30 cm in length, which was suspended between two pillars at a height of about 40 cm from the bottom covered with a soft pad. […] Each mouse was made to grip the wire using two forelimbs, and the elapse time before the mouse fell off from the wire to the pad on the bottom was recorded in seconds. Each mouse was given 5 opportunities for this test at an interval of 2 minutes period. The highest 3 records among the test opportunities were selected and the mean value was used as the test result. This experimentation was conducted according to the method described in the reference, ‘Jacqueline N. Crawley (1999) Behavioral phenotyping of transgenic and knockout mice: experimental design and evaluation of general health, sensory functions, motor abilities, and specific behavioral tests. Brain Res. 835: 18-26’.
as §2

The test system of data set [4] is male mice (ICR). Description: Muscle relaxation: grip strength. It is filed as in vivo. The following applies: Mus musculus, ip; intraperitoneal, at time of maximum effect; 50% of activity vs vehicle only; read-out: MR test ED50, III = Grip strength. How it is done: as §1
A grip strength test using the test animals' forelimbs was performed using an instrument equipped with triangle ring and designed so as to easily grip with the forelimbs of experimental animals, manufactured from Ugo Basile Inc. (Ugo Basile, Model47106, Italy). The test was conducted before and after administration of the compounds to evaluate the effects thereof. […] The mouse was made to grip the rod with its forelimbs, and its tail was pulled, where the force at which the mouse detached from the rod was recorded. The instrument indicated the force in grams. All of the mice were given […] for test, and the 3 highest values among the test opportunities were selected and the mean value was used as the test result. This experimentation was conducted according to the method described in the reference, ‘Nevins et al. (1993) Quantitative grip strength assessment as a means of evaluating muscle relaxation in mice. Psychopharmacol. 110: 92-96’.
as §2

The test system of the next data set is male ICR mice. The data set can be described thus: MES (Maximal Electroshock Seizure) test in mice.
Another data set concerns MOG EAE rat. Description: Anti-multiple sclerosis activity by MOG EAE rat.
Setting [5] is: Mus musculus, po, read-out: MES test (po) ED50.
Where [6] appears, read: Mus musculus, po, read-out: MES test (po) Protection %.

The structures appear in SMILES notation. Where “and” joins values, the source holds several entries; their conditions need not be identical. Equal values may be shown once. Entries after “also recorded” stand apart in the source; their conditions may differ. Read-outs that look alike come from different tables or passages of the source.

Turning to `C[C@H](OC(N)=O)[C@@H](O)c1ccccc1Cl` [Compound 1, 1-(2-chlorophenyl)-(S)-1-hydroxypropyl-(S)-2-carbamate], the ED50 with male mice (ICR) [1] was 39.7 mg/kg; in the data set with male mice (ICR) [2], 23.3 mg/kg; in the data set with male SD rats (0.5 h) it was 5.9 mg/kg; in the data set with male SD rats (1 h) it was 3.3 mg/kg; in the data set on male SD rats (2 h) it was 1.4 mg/kg; with male SD rats (4 h) it was 6.9 mg/kg. Moreover, the ED50 in the data set on male SD rats (12 h) was 36.1 mg/kg; with male mice (ICR) [3], 13.3 mg/kg; in the data set with male mice (ICR) [4], 40.9 mg/kg; in the data set with male ICR mice (Mus musculus, po, 0.25 h, read-out: Duration of MES test ED50) it was 21.2 mg/kg; with male ICR mice (Mus musculus, po, 0.5 h, read-out: Duration of MES test ED50) it was 22.5 mg/kg; in the data set on male ICR mice (Mus musculus, po, 1 h, read-out: Duration of MES test ED50), 13.3 mg/kg. The ED50 in the data set with male ICR mice (Mus musculus, po, 2 h, read-out: Duration of MES test ED50) worked out at 13 mg/kg; in the data set with male ICR mice (Mus musculus, po, 3 h, read-out: Duration of MES test ED50), 14.7 mg/kg; in the data set on male ICR mice (Mus musculus, po, 4 h, read-out: Duration of MES test ED50), 18.7 mg/kg; in the data set with male ICR mice (Mus musculus, po, 6 h, read-out: Duration of MES test ED50), 30 mg/kg; in the data set on male ICR mice (Mus musculus, po, 8 h, read-out: Duration of MES test ED50), 49.4 mg/kg; in the data set on male ICR mice (Mus musculus, po, 12 h, read-out: Duration of MES test ED50) it was 119 mg/kg. Also, the ED50 in the data set with male ICR mice (setting [5]) came to 13 mg/kg. Moreover, the “efficacy duration time (MES)” value is “at least 12 hours” with male SD rats (rats, oral) and “at least 12 hours” in the data set with male ICR mice (mice, oral). Besides, the “body weight gain vs vehicle group” value in the data set on MOG EAE rat (3, 10 and 50 mg/kg p.o. twice a day, days 0-30, p>0.05) was “gained weight similarly than vehicle group”. Besides, in the data set with MOG EAE rat (all groups (3, 10, 50 mg/kg p.o. twice a day, days 0-29)), the Disease incidence amounted to 100%. The mortality in the data set on MOG EAE rat (rat, in vivo) is 0.0% and 5.0%. In addition, the “CD68 immunoreactivity (% of white matter area) vs vehicle” value in the data set on MOG EAE rat (spinal cord C segment, 50 mg/kg, day 30, p<0.05, 50 mg/kg) is on record as “significantly smaller than in vehicle group; also recorded: reduced immunoreactivity”; with MOG EAE rat (spinal cord T segment, all doses, day 30) it was “significantly less immunoreactivity; also recorded: significantly reduced immunoreactivity”; in the data set on MOG EAE rat (spinal cord combined C+T segments, all doses, day 30), “significantly less immunoreactivity; also recorded: significantly reduced immunoreactivity”. In the data set with MOG EAE rat (spinal cord, all doses (3, 10, 50 mg/kg), all segments, day 30, MBP staining), the “demyelination area (% of white matter area) vs vehicle” value is listed as “significantly less demyelination than vehicle treated animals; also recorded: significantly diminished demyelinated lesion volumes”.
Take `C[C@H](OC(N)=O)[C@H](O)c1ccccc1Cl` [Compound 5, 1-(2-chlorophenyl)-(R)-1-hydroxypropyl-(S)-2-carbamate]: the ED50 was 66.9 mg/kg in the data set on male mice (ICR) [1]; 65.5 mg/kg in the data set on male mice (ICR) [2]; 52.5 mg/kg in the data set with male mice (ICR) [3]; 95 mg/kg in the data set on male mice (ICR) [4]; 84.1 mg/kg in the data set on male ICR mice (setting [5]).
As for `CNC(=O)O[C@@H](C)[C@@H](O)c1ccccc1Cl` [Compound 15, 1-(2-chlorophenyl)-(S)-1-hydroxypropyl-(S)-2-N-methylcarbamate], the ED50 is 51.4 mg/kg in the data set with male mice (ICR) [1], 42.8 mg/kg in the data set on male mice (ICR) [2], 25.4 mg/kg with male mice (ICR) [3] and 83.6 mg/kg with male mice (ICR) [4]. In addition, the responders at 100 mg/kg in the data set on male ICR mice (setting [6]) is 75%.
Regarding `CCCNC(=O)O[C@@H](C)[C@@H](O)c1ccccc1Cl` [Compound 16, 1-(2-chlorophenyl)-(S)-1-hydroxypropyl-(S)-2-N-propylcarbamate], the ED50 in the data set with male mice (ICR) [1] is 48.7 mg/kg; with male mice (ICR) [2], 61.6 mg/kg; in the data set on male mice (ICR) [3], 16.1 mg/kg; with male mice (ICR) [4], 67.8 mg/kg. Moreover, in the data set on male ICR mice (setting [6]), the responders at 200 mg/kg was 25%.
As for `C[C@H](OC(=O)NC1CC1)[C@@H](O)c1ccccc1Cl` [Compound 18, 1-(2-chlorophenyl)-(S)-1-hydroxypropyl-(R)-2-N-cyclopropylcarbamate], the ED50 stood at 59.2 mg/kg in the data set on male mice (ICR) [1], 61.2 mg/kg in the data set with male mice (ICR) [2], 29.5 mg/kg with male mice (ICR) [3] and 87.4 mg/kg with male mice (ICR) [4]. Besides, the responders at 200 mg/kg with male ICR mice (setting [6]) was found to be 100%.

The values are drawn from patent US20130184338A1, “PHENYLPROPYL CARBAMATE DERIVATIVES FOR USE IN PREVENTING OR TREATING MULTIPLE SCLEROSIS” (Bio-Pharm Solutions Co., Ltd., priority 2011, published 2013).
